The results in this text go back to ChEMBL document CHEMBL3596153, “Trichormamides C and D, antiproliferative cyclic lipopeptides from the cultured freshwater cyanobacterium cf. Oscillatoria sp. UIC 10045” (Bioorg Med Chem, 2015).

The subject of one test is MDA-MB-435. Kind of test: Antiproliferative activity against human MDA-MB-435 cells. Type of test: functional, cell-based.
In a further test the test system is HT-29. Briefly: Antiproliferative activity against human HT-29 cells. It counts as functional, cell-based.
Test [1] concerns Mycobacterium tuberculosis. Kind of test: Antimicrobial activity against Mycobacterium tuberculosis at 50 ug/ml. It counts as functional, organism-based.
In test [2] the test system is Mycolicibacterium smegmatis. Kind of test: Antimicrobial activity against Mycobacterium smegmatis at 50 ug/ml. Type of test: functional, organism-based.
For the next test, the system named is Staphylococcus aureus. Kind of test: Antimicrobial activity against Staphylococcus aureus at 50 ug/ml. Type of test: functional, organism-based.
A further test deals with Escherichia coli. Kind of test: Antimicrobial activity against Escherichia coli at 50 ug/ml. Type of test: functional, organism-based.
The subject of another test is Candida albicans. Briefly: Antimicrobial activity against Candida albicans at 50 ug/ml. Type of test: functional, organism-based.
Test [3] deals with Mycobacterium tuberculosis. Kind of test: Antimicrobial activity against Mycobacterium tuberculosis. It counts as functional.

In brackets after ≈: the same amount, converted by molar mass. Activity calls are given as the source filed them. The calls are words filed in the database; no cut-off is given here.

In general, IC50 refers to the point on the concentration scale where inhibition reaches its midpoint. A low value points to higher potency. Consider `C/C=C1/NC(=O)[C@H](CCC(N)=O)NC(=O)C[C@@H](CCCCCCC)NC(=O)CNC(=O)[C@H](CC(C)C)NC(=O)[C@@H](Cc2ccccc2)NC(=O)[C@H](C(C)C)NC(=O)[C@@H](CC(C)C)NC(=O)[C@@H](Cc2ccc(O)cc2)NC(=O)[C@H](CO)NC(=O)[C@@H]2CCCN2C1=O`, for which the IC50 came out at 11.7 µM in the test with MDA-MB-435 and 11.5 µM with HT-29. Besides, the result (in test [1]; in test [2]; in the test on Staphylococcus aureus; in the test with Escherichia coli; with Candida albicans) was inactive.

The term MIC denotes the lowest concentration found to suppress growth. Low values mean a more susceptible organism, high ones a less susceptible organism. Take `CCCCCCC[C@@H]1CC(=O)N[C@@H](C(C)C)C(=O)N[C@H]([C@@H](O)C(C)C)C(=O)N[C@@H](C)C(=O)N[C@H]([C@@H](O)C(C)C)C(=O)N[C@@H](CCC(N)=O)C(=O)N(C)[C@@H]([C@@H](C)CC)C(=O)N[C@H](CC(N)=O)C(=O)N[C@@H]([C@@H](C)O)C(=O)N2CCC[C@H]2C(=O)N[C@H](CC(C)C)C(=O)N[C@@H]([C@@H](C)O)C(=O)N1`: the concentration for half-maximal inhibition (IC50) with MDA-MB-435 worked out at 1 µM; with HT-29, 1.7 µM. Also, the minimal inhibitory concentration (MIC) in test [3] was found to be 23.8 µg/mL (≈ 17.3 µM). In addition, the outcome (in test [2]; with Staphylococcus aureus; in the test on Escherichia coli; with Candida albicans) was inactive.
